The record followed here is patent US20260240962A1, “PHARMACEUTICAL COMPOSITION FOR TREATING AND/OR PREVENTING CANCER” (TORAY INDUSTRIES, INC., priority 2023, published 2026).

The subject of experiment [1] is CAPRIN-1 protein on the membrane surface of the cancer cells. Put plainly: Flow cytometry of CAPRIN-1 protein on the membrane surface of HCT-116 treated with low molecular weight compounds. Particulars: 1 to 3 days, vs DMSO negative control. In kind it is cell-based, human. The procedure: 2×10^5 cancer cells suspended in Dulbecco's PBS(−) containing 1% fetal bovine serum (hereinafter, 1% FCS-PBS(−)) were reacted with an antibody against CAPRIN-1 at a concentration of 1 to 10 μg/mL, and then allowed to react on ice (or at 4° C.) for 1 hour.
After the antibody reaction, cells were washed with 1% FCS-PBS (−) and then reacted with a fluorescently labeled anti-IgG secondary antibodies (FITC Goat anti-rabbit IgG (BD Biosciences, 554020), Alexa Fluor 488 anti-rabbit IgG (H+L) (Invitrogen, A21206), Alexa Fluor 647 anti-rabbit IgG (BioLegend, 406414). Alexa Fluor 488 F(ab′)2 anti-mouse IgG (H+L) (Invitrogen, A11017) or Alexa Fluor 488 anti-human IgG (H+L) (Invitrogen, A11013) at a concentration of 1 to 10 μg/mL for reaction with an antibody against CAPRIN-1, followed by 1 hour of reaction on ice (or at 4° C.). After reaction with the fluorescently labeled secondar antibodies, cells were washed with 1% FCS-PBS(−) and then reacted with a PI (propidium iodide) solution (DOJINDO, 341-07881) or Fixable Viability Stain 450 (BD Horizon) prepared at a concentration of 0.1 μg/mL for 15 minutes. Cells were then washed with 1% FCS-PBS(−) and then the scattered light intensity and fluorescence intensity were measured using a flow cytometer according to a standard method.
(In general: In flow cytometry, cells or beads pass a laser one at a time.)

Another experiment relates to HCT-116. Nature of the experiment: Antitumor effect in HCT-116 cancer-bearing nude mice. Format: in vivo. Particulars: HCT-116 subcutaneous in nude mice; 10 mg/kg twice a week into the tail vein. The procedure:
The antitumor effect of Dorsomorphin, which was an AMPK inhibitor, confirmed in Example 9 to have the effect of reducing the expression of the CAPRIN-1 protein on the membrane surface of the cancer cells, was confirmed. HCT-116, which were the cancer cells confirmed to express the CAPRIN-1 protein on the cell membrane surface were cultured in a normal culture flask using a complete medium containing 10% fetal bovine serum according to a standard method, and then mixed with RPMI-1640 medium containing 20% Matrigel Basement Membrane Matrix (Corning, 354234), and 1 to 2×10^7 cancer cells per mouse were subcutaneously inoculated into nude mice under anesthesia. After the cancer cells were inoculated, the size of the cancer in each cancer-bearing mouse was measured over time using a vernier caliper, and the tumor volume was calculated for each individual mouse using the formula: (length of the long axis of the cancer)×(length of the short axis of the cancer) 2×0.5 according to a standard method, and the average value of the administration group was calculated. After the cancer cells were inoculated, Dorsomorphin was administered at 10 mg/kg twice a week into the tail vein of each cancer-bearing mouse whose tumor size reached 100 to 200 mm^3 or more. […]

The test system of a further experiment is SK-MEL-5. Put plainly: Soft agar colony formation assay (anchorage-independent colony-forming ability), SK-MEL-5. Format: cell-based, human. Particulars: SK-MEL-5 treated with trypsin vs not treated, 2 to 4 weeks. The procedure: (§1) 10^4 cells of each of the above cells were suspended in DMEM medium gel containing 10% fetal bovine serum containing 0.4% soft agar (Difco, 214220), added to a Petri dish with a diameter of 35 mm, and then incubated under an environment of 37° C. and 5% CO2 for 2 to 4 weeks. After incubation, the number of colonies formed in the gel was counted.
SK-MEL-5, winch were the cancer cells confirmed to express the CAPRIN-1 protein on the cell membrane surface in Example 3, was cultured in a normal culture flask using a complete medium containing 10% fetal bovine serum under an environment of 37° C. and 5% CO2. The cultured SK-MEL-5 was collected from the flask using a cell scraper. […] On the other hand, […], SK-MEL-5, […], was used to evaluate the anchorage-independent colony-forming ability by soft agar colony formation assay. 10^4 cells of each of the above cells were suspended in a DMEM medium gel containing 10% fetal bovine serum containing 0.4% soft agar (Difco, 214220), added to a Petri dish with a diameter of 35 mm, and then incubated under an environment of 37° C. and 5% CO2 for 2 to 4 weeks.

Experiment [2] has as its system CAPRIN-1 protein on the cell membrane surface. Nature of the experiment: Flow cytometry of CAPRIN-1 protein on the cell membrane surface after trypsin treatment. Format: cell-based, human. Particulars: Trypsin/EDTA (0.05%) for 5 minutes, vs cells not treated. The procedure: The expression of the CAPRIN-1 protein on the cell membrane surface of the cancer cells for which the expression of the CAPRIN-1 gene was confirmed in Example 1 was confirmed by flow cytometry. 2×10^5 cancer cells suspended in Dulbecco's PBS(−) containing 1% fetal bovine serum (hereinafter, 1% FCS-PBS(−)) were reacted with an antibody against CAPRIN-1 at a concentration of 1 to 10 μg/mL, and then allowed to react on ice (or at 4° C.) for 1 hour. […]
SK-MEL-5 and OVCAR3, which were the cancer cells confirmed to express the CAPRIN-1 protein on the cell membrane surface in Example 3, were cultured in a normal culture flask using a complete medium containing 10% fetal bovine serum under an environment of 37° C. and 5% CO2. […] Portions of the collected cells were treated with a solution containing trypsin, which was a digestive enzyme, (Thermo, Trypsin/EDTA (0.05%)) for 5 minutes, and then the proportions of live cells and dead cells stained with trypan blue were measured and calculated using the trypan blue exclusion method according to a standard method, and then the cell density of live cells was calculated. […]

The subject of the next experiment is OVCAR3. Put plainly: Soft agar colony formation assay (anchorage-independent colony-forming ability), OVCAR3. Format: cell-based, human. Particulars: OVCAR3 treated with trypsin vs not treated, 2 to 4 weeks. The method, then: as §1

Consider `COc1cccc(-c2cc(NCc3ccc4c(c3)OCO4)nc(N)n2)c1` [Wnt agonist 1], for which the “expression of the CAPRIN-1 protein on the membrane surface of the cancer cells” value (from here on “expression … of the cancer cells”) in experiment [1] (final concentration 20 μM) is recorded as “clearly reduced”.
Regarding `CCN(CC)CCCC(C)Nc1nc(C)cc(Nc2ccc3nc(C)cc(N)c3c2)n1.Cl.Cl.Cl` (racemic) [Rac1 inhibitor (CAS #1177865-17-6)], the “expression … of the cancer cells” value in experiment [1] (final concentration 250 nM) was “clearly reduced”.
As to `FC(F)(F)c1ccc(/C=C/c2nc(COc3ccc(CCCCn4ccnn4)cc3)co2)cc1` [Mubritinib], in experiment [1] (final concentration 1 μM), the “expression … of the cancer cells” value is reported as “clearly reduced”.
Consider `Cn1c2cccc(=O)c-2nc2ccccc21` [Pyocyanin], for which the “expression … of the cancer cells” value in experiment [1] (final concentration 20 μM) is “clearly reduced”.
On to `O=C(N/N=C/c1ccc(O)c(O)c1)c1cc2ccccc2cc1O` [Dynasore], for which the “expression … of the cancer cells” value in experiment [1] (final concentration 100 μM) is given as “clearly reduced”.
As for `Cc1cc(-c2ccc(CC(=O)Nc3ccc(-c4cccnc4)cc3)cc2)ccn1` [Wnt-C59], the “expression … of the cancer cells” value in experiment [1] (final concentration 5 μM) was “clearly reduced”.
In the case of `c1cc(-c2cnn3cc(-c4ccc(OCCN5CCCCC5)cc4)cnc23)ccn1` [Dorsomorphin], the “tumor size, when the tumor size of the untreated cancer-bearing mice was taken as 100%” value with HCT-116 is on record as no more than 70%.
As for `COc1ccc(CNC(=O)Nc2ncc([N+](=O)[O-])s2)cc1` [GSK-3D inhibitor VIII], the “expression … of the cancer cells” value in experiment [1] (final concentration 10 μM) is on record as “clearly reduced”.
Turning to `Cc1ccc(C(=O)Cn2c3c(sc2=N)CCCC3)cc1` [Pifithrin-α], the “expression … of the cancer cells” value in experiment [1] (final concentration 30 μM) is “clearly reduced”.

B1: trypsin (protein, UniProt P00761 9-231, looked up)
Trypsin: IVGGYTCAANSIPYQVSLNSGSHFCGGSLINSQWVVSAAHCYKSRIQVRLGEHNIDVLEGNEQFINAAKIITHPNFNGNTLDNDIMLIKLSSPATLNSRVATVSLPRSCAAAGTECLISGWGNTKSSGSSYPSLLQCLKAPVLSDSSCKSSYPGQITGNMICVGFLEGGKDSCQGDSGGPVVCNGQLQGIVSWGYGCAQKNKPGVYTKVCNYVNWIQQTIAAN
modifications: EDTA solution
notes: hydrolytic / digestive enzyme; solution containing trypsin (Thermo, Trypsin/EDTA (0.05%))
Consider B1, for which the “number of colonies formed” value with SK-MEL-5 and in the experiment on OVCAR3 was “significantly lower” throughout. In addition, the “expression of the CAPRIN-1 protein on the cell membrane surface” value in experiment [2] (OVCAR3) and in experiment [2] (SK-MEL-5) was “reduced” in each case.
